Measurements: patent US4767742A, “Hirudin-PA and its derivatives, process for manufacturing these and the use of these substances” (Plantorgan-Werk Heinrich G. F. Christensen, KG, priority 1984, dated 1988)

Key:
thrombin [1] = target: T1, thrombin (Homo sapiens, UniProt P00734); test: specific antithrombin activity; format: biochemical
thrombin [2] = target: T1, thrombin; test: dissociation constant of the complex with thrombin; format: binding; conditions: read-out: dissociations constant Ki of the complex with thrombin
[3] = test system: other proteinases of the blood clotting cascade; test: specificity against proteinases of the blood clotting cascade; format: biochemical

Substance	specific antithrombin activity (thrombin [1])	Ki (thrombin [2]) [nM]	inhibition of other proteinases of the blood clotting cascade [3]
hirudin-PA	680-720 IU/mg	0.04	–
hirudin	–	~0.03	inhibits no other proteinases of the blood clotting cascade
